Experimental data reported in paper PMC11594981 (International Journal of Molecular Sciences, 2024).

Target: T1, CYP3A4 (Homo sapiens, UniProt P08684)
T1 construct: recombinant CYP3A4 (BACULOSOMES Plus reagent)
Assay: fluorogenic substrate turnover by recombinant CYP3A4 (Vivid kit)
Format: biochemical

T1 sequence (P08684 2-503): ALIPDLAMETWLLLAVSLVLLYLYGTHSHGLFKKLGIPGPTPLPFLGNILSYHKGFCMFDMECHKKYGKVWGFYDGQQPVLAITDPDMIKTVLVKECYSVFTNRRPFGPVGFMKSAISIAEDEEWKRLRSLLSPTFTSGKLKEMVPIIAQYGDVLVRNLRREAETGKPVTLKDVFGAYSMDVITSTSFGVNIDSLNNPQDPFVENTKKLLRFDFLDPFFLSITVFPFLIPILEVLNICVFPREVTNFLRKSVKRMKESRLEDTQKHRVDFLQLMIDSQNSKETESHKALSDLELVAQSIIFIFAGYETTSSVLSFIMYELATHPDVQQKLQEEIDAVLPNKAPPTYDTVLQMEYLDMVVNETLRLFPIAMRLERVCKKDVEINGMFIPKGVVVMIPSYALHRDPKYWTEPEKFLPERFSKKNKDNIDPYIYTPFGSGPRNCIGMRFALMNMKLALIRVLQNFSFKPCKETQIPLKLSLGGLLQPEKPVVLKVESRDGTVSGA

Structure (SMILES): N#Cc1cc2ccc(OCOCc3ccccc3)cc2oc1=O [BOMCC, 7-benzyloxymethoxy-3-cyano-coumarin]
- fluorogenic substrate turnover by recombinant CYP3A4 (Vivid kit): Inhibition of BOMC transformation by CYP3A4 in the presence of ivermectin
